Experimental findings from patent publication US6821988B2, “3-cyanoquinolines as inhibitors of EGF-R and HER2 kinases” (Wyeth Holdings Corporation, priority 2001, dated 2004) are described below.

In test [1] the target is T1, EGFR cytoplasmic domain (EGFR-CD, amino acid 645-1186) (Homo sapiens, UniProt P00533).
T1 construct: EGFR cytoplasmic domain (EGFR-CD, amino acid 645-1186); made in house; host or cells: Sf-9 insect cells, baculovirus (pFASTBacHTc)
Put plainly: Inhibition of EGF-R kinase autophosphorylation, recombinant enzyme, DELFIA/time-resolved fluorometry. It is filed as biochemical. As to the method: (§1) A 1.7 kb cDNA encoding human HER2 cytoplasmic domain (HER2-CD, amino acid 676-1255) and 1.6 kb cDNA for EGFR cytoplasmic domain (EGFR-CD, amino acid 645-1186) were cloned into baculoviral expression vectors, pBlueBacHis2B (Invitrogen) and pFASTBacHTc (GIBCO), separately. A sequence encoding (His)6 is located at the 5′ end upstream to HER2 and EGFR sequences. Sf-9 cells were infected at moi=10 for 3 days for protein expression. Sf-9 cell pellets were solubilized on ice in buffer containing 50 mM HEPES, pH 7.4, 10 mM NaCl, 1% Triton, 10 μM ammonium molybdate, 100 μM sodium vanadate, 10 μg/ml aprotinin, 10 μg/ml leupeptin, 10 μg/ml pepstatin, and 16 ug/ml benzamidine HCl for 20 min followed by 20 min centrifugation. Crude extract supernatant was passed through equilibrated Ni-NTA superflow packed column (Qiagen, Valencia, Calif.) and wash with 10 mM, and 100 mM imidazole to remove unspecific binding. Histidine-tagged proteins were eluted with 250 mM and 500 mM imidazole and dialyzed against 50 mM NaCl, 20 mM HEPES, 10% glycerol and 1 μg/ml each of aprotinin, leupeptin and pepstatin for 2 h. All the purification procedure was performed at 4° C. or on ice. Purified materials were subjected for electrophoresis followed by Coommassie blue stain to determine the purity of the preparation and Western blot for the identity of protein. Enzymes were aliquoted and stored at −80° C.
(§2) Inhibition of EGFR and HER2 kinase autophosphorylation was measured by a DELFIA/time-resolved fluorometry assay. Compounds were dissolved in 100% DMSO and diluted to the appropriate concentrations with 25 mM HEPES, pH 7.4. In each well, 10 μl of compound was incubated with 10 μl of recombinant EGF-R or HER2 enzyme (1:80 dilution in 100 mM HEPES) for 10 min at room temperature. Then, 10 μl of 5×buffer (containing 20 mM HEPES, 2 mM MnCl2, 100 uM Na3VO4 and 1 mM DTT) and 20 μl of 0.1 mM ATP/50 mM MgCl2 was added for 1 h. Positive and negative controls were included in each plate by incubation of enzyme with or without ATP/MgCl2. At the end of incubation, liquid was aspirated and washed three times with wash buffer. 75 μl (400 ng).of europium-labeled anti-phosphotyrosine antibody was added to each well for another hour of incubation. After wash, enhancement solution was added and the signal was detected by Victor (Wallac Inc) with excitation at the wavelength of 340 nm and emission at the wavelength of 615 nm. All reagents were supplied by Wallac Inc (Wallac/Perkin-Elimer). Percentage of autophosphorylation inhibition by compound was calculated by […]. IC50 values were obtained from curves of percentage inhibition with 8 doses of compound.

Test [2] relates to HER2-3T3 (murine fiboblasts transfected with human HER2). Put plainly: Inhibition of cell growth, sulforhodamine B assay, HER2-3T3. It is filed as cell-based. As to conditions: HER2-3T3, 2 days. How it is done: (§3) […], A431 (epidermoid carcinoma), SKBR3 (breast carcinoma), SW620 (colon carcinoma), and MDA-MB435 (breast carcinoma), BT474 (breast carcinoma), and two murine lines, 3T3 (murine fiboblasts) and HER2-3T3 (murine fiboblasts transfected with human HER2) were used for cell proliferation assays. Cells were maintained in RPMI -1640 medium supplemented with 5% fetal bovine serum. Cells were plated in 96-well plates at the densities of 2.5×10^4/ml for 3T3 and 3T3/HER2 and 5.0×10^4/ml for the rest of the cell lines. On the next day, compounds were dosed at 0.5, 5, 50, 500, and 5000 ng/ml and cultured for 2 days. At the end of incubation, cell survival was determined by the sulforhodamine B assay as previously described (Skehan, P; Stornet, R.; Scudiero, D.; Monks, A.; McMahon, J.; Vistica D., Warren, J.; Bokbosch, H.; Kenny, S.; Boyd, M. New Colorimetric Cytotoxic Assay for Anticancer-Drug Screening. J. Natl. Cancer Inst. 1990, 82, 1107-1112). The IC50 values (the concentration needed to inhibit cell growth by 50%) were obtained from the growth curves and are shown below in Table 2 where the results of multiple determinations are included.
A general note: Sulforhodamine B stains cellular protein and so reports cell mass.

Test [3] concerns BT474 (breast carcinoma). The test is described as follows: Inhibition of cancer cell growth, sulforhodamine B assay, BT474. It is filed as cell-based. To be noted: Homo sapiens, BT-474, 48 h; BT474, 2 days; read-out: Inhibition of Cancer Cell Growth in vitro IC50, BT474. As to the method: as §3
Test [4] deals with 3T3 (murine fiboblasts). The test is described as follows: Inhibition of cell growth, sulforhodamine B assay, 3T3. To be noted: 3T3, 2 days. The test is classed as cell-based. How it is done:
as §3

Test [5] has as its system A431 (epidermoid carcinoma). Put plainly: Inhibition of cancer cell growth, sulforhodamine B assay, A431. It is filed as cell-based, human. To be noted: A431, 2 days. As to the method:
as §3

In test [6] the target is T2, human HER2 cytoplasmic domain (HER2-CD, amino acid 676-1255) (Homo sapiens, UniProt P04626).
T2 construct: human HER2 cytoplasmic domain (HER2-CD, amino acid 676-1255); made in house; host or cells: Sf-9 insect cells, baculovirus (pBlueBacHis2B)
The test is described as follows: Inhibition of HER2 kinase autophosphorylation, recombinant enzyme, DELFIA/time-resolved fluorometry. The test is classed as biochemical. As to the method:
as §1, §2

≈ marks a conversion by molar mass, not a printed value. Where “and” joins values, the source holds several entries; their conditions need not be identical. Equal values may be shown once.

T2 sequence (P04626 676-1255): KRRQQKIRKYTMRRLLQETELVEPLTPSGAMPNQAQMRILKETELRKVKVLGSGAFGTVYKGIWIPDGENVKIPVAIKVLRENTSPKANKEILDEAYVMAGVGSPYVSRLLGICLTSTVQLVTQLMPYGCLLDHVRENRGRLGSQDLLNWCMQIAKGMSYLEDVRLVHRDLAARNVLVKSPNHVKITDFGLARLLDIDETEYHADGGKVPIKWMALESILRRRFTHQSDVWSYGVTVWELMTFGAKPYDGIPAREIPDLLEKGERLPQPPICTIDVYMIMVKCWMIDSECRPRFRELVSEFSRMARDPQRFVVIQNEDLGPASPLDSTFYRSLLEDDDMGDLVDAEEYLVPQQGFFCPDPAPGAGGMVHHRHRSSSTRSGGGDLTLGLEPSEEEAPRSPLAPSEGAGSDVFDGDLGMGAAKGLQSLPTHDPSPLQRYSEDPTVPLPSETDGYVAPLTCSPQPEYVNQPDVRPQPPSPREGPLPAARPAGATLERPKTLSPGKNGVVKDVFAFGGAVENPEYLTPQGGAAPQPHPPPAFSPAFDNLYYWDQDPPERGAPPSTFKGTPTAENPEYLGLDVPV
T1 sequence (P00533 669-1210): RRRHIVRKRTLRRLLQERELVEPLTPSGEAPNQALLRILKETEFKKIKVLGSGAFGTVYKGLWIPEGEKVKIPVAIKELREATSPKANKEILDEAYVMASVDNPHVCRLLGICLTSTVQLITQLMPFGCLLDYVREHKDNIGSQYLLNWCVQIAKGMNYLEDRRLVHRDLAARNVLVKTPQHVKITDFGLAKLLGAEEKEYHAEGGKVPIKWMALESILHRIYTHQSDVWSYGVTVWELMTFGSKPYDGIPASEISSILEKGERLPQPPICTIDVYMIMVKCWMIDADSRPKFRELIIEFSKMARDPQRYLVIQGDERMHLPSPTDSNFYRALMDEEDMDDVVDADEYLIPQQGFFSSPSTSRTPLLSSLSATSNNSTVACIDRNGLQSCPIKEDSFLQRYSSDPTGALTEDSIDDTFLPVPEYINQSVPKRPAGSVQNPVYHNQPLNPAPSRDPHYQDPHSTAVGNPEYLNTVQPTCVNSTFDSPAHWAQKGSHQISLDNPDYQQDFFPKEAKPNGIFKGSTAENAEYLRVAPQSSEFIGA

In general, IC50 refers to the concentration that gives 50% inhibition. `COc1cc2ncc(C#N)c(Nc3ccc(Sc4nc(-c5ccccc5)cs4)c(Cl)c3)c2cc1NC(=O)CC(CN(C)C)N(C)C` (stereo not shown) [Example 1]: the IC50 in test [1] was 4760 nM; in test [2] (Mus musculus, 48 h, read-out: Inhibition of Cancer Cell Growth in vitro IC50, HER2-3T3), 0.041 µg/mL (≈ 0.061 µM); in test [3], 0.02 µg/mL (≈ 0.0297 µM); in test [4] (Mus musculus, 48 h, read-out: Inhibition of Cancer Cell Growth in vitro IC50, 3T3) it was 0.76 µg/mL (≈ 1.13 µM); in test [5] (Homo sapiens, A-431, 48 h, read-out: Inhibition of Cancer Cell Growth in vitro IC50, A431), 0.242 µg/mL (≈ 0.36 µM); in test [6] (recombinant HER2 autophosphorylation), 1320 nM and 787 nM. Further, the “Inhibition of Cancer Cell Growth in vitro IC50, HER2-3T3” value in test [2] was 0.04 µg/mL and 0.03 µg/mL. Moreover, the “Inhibition of Cancer Cell Growth in vitro IC50, 3T3” value in test [4] is 0.7 µg/mL and 0.57 µg/mL. For the same compound, in test [5], the “Inhibition of Cancer Cell Growth in vitro IC50, A431” value was 0.37 µg/mL and 0.28 µg/mL. In addition, the inhibition at 2 µg/mL in test [6] (read-out: HER2 % Inhibition at 2 μg/mL) amounted to 63%.
